Values quoted from earlier work in US20090069433A1 (priority 2007, published 2009).

Conditions: pure capsaicinoid; background statement

## COc1cc(CNC(=O)CCCC/C=C/C(C)C)ccc1O [Capsaicin]
  pungency (Scoville scale): 15,000,000-16,000,000 Scoville units
